Data published in EPA's ToxRefDB 2.

Columns and labels:
[1] = test system: dog; settings: Sub-acute repeat dose toxicity, beagle, Oral, Gavage/Intubation, dose end: 14 day, group: systemic
[2] = test system: rat; settings: Sub-acute repeat dose toxicity; sprague dawley; Oral; Gavage/Intubation; dose end: 14 day; group: systemic; systemic / clinical chemistry / [other] / [other] + systemic / clinical chemistry / 5' nucleotidase / 5' nucleotidase + systemic / clinical …
[3] = test system: rat; settings: Combined chronic toxicity/carcinogenicity; fischer; Oral; Feed; dose end: 24 month; group: systemic; systemic / in life observation / body weight / body weight + systemic / in life observation / body weight / body weight gain + systemic / …
[4] = test system: dog; settings: Chronic toxicity; beagle; Oral; Feed; dose end: 52 week; group: systemic; systemic / organ weight / adrenal gland / absolute + systemic / organ weight / adrenal gland / relative to body weight + systemic / …
[5] = test system: mouse; settings: Combined chronic toxicity/carcinogenicity; b6c3f1; Oral; Feed; dose end: 104 week; group: systemic; systemic / in life observation / body weight / body weight + systemic / in life observation / body weight / body weight gain + systemic / …
[6] = test system: rat; settings: Prenatal developmental toxicity study, sprague dawley, Oral, Gavage/Intubation, dose end: 17 GD
[7] = test system: rat; settings: Subchronic oral toxicity in rodents, fischer, Feed, dose end: 13 week
[8] = test system: rat; settings: Combined chronic toxicity/carcinogenicity, wistar, Oral, Feed, dose end: 104 week
[9] = test system: mouse; settings: Combined chronic toxicity/carcinogenicity, other, Oral, Feed, dose end: 104 week, group: systemic
[10] = test system: dog; settings: Chronic toxicity, beagle, Oral, Feed, dose end: 52 week, group: systemic
[11] = test system: dog; settings: Subchronic oral toxicity in nonrodent, beagle, Feed, dose end: 13 week, group: systemic, systemic / organ weight / lung / relative to body weight + systemic / pathology gross / lung / [other] + systemic / pathology microscopic / …
[12] = test system: mouse; settings: Combined chronic toxicity/carcinogenicity, other, Oral, [Not Specified], dose end: 99 week, group: systemic
[13] = test system: rat; settings: Prenatal developmental toxicity study, other, Oral, Gavage/Intubation, dose end: 15 GD
[14] = test system: mouse; settings: Combined chronic toxicity/carcinogenicity, b6c3f1, Oral, Feed, dose end: 104 week, group: systemic
[15] = test system: mouse; settings: Combined chronic toxicity/carcinogenicity, b6c3f1, Oral, Feed, dose end: 5 week, group: systemic
[16] = test system: rat; settings: Combined chronic toxicity/carcinogenicity, fischer, Oral, Feed, dose end: 13 week, group: systemic
[17] = test system: rat; settings: Combined chronic toxicity/carcinogenicity, fischer, Oral, Feed, dose end: 119 week, group: systemic
[18] = systemic / clinical chemistry / cholesterol / cholesterol + systemic / clinical chemistry / thyroid stimulating hormone (thyrotropin) (tsh…
[19] = systemic / clinical chemistry / thyroid stimulating hormone (thyrotropin) (tsh) / thyroid stimulating hormone (=thyrotropin) (tsh) + …
[20] = group: developmental, developmental / developmental malformation / bone / delayed ossification
[21] = group: maternal, systemic / in life observation / body weight / body weight gain + systemic / in life observation / food consumption / food consumption + …
[22] = group: cholinesterase, cholinesterase / cholinesterase / cholinesterase / plasma cholinesterase (che)
[23] = group: systemic, systemic / organ weight / kidney / relative to body weight + systemic / organ weight / liver / absolute + systemic / organ weight / liver / …
[24] = group: cholinesterase, cholinesterase / cholinesterase / cholinesterase / erythrocyte cholinesterase (che)
[25] = group: systemic, systemic / organ weight / kidney / absolute + systemic / organ weight / ovary / absolute
[26] = group: systemic, systemic / organ weight / kidney / absolute + systemic / organ weight / ovary / absolute + systemic / organ weight / brain / relative to …
[27] = systemic / pathology microscopic / lung / [other] + systemic / urinalysis / [other] / urine
[28] = systemic / in life observation / body weight / body weight + systemic / in life observation / food consumption / food consumption + systemic…
[29] = systemic / in life observation / food consumption / food consumption + systemic / pathology microscopic / blood / [other] + systemic / …
[30] = group: developmental, developmental / developmental malformation / bone / delayed ossification + systemic / in life observation / body weight / fetal weight
[31] = group: maternal, systemic / in life observation / body weight / body weight gain + systemic / in life observation / clinical signs / emaciation + systemic / …
[32] = systemic / organ weight / kidney / absolute + systemic / organ weight / liver / relative to body weight
[33] = systemic / organ weight / kidney / absolute + systemic / organ weight / liver / relative to body weight + systemic / organ weight / kidney…
[34] = systemic / organ weight / liver / absolute + systemic / organ weight / liver / relative to body weight + systemic / pathology microscopic / …
[35] = systemic / organ weight / spleen / absolute + systemic / organ weight / spleen / relative to body weight
[36] = systemic / in life observation / body weight / body weight gain + systemic / organ weight / liver / relative to body weight + systemic / …

SMILES: Cc1cc(NC(=O)C(=O)O)cc(C)c1Oc1ccc(O)c2c1CCC2
- LEL [1, 18]: 5 mg/kg/day
- NEL [1, 18]: < 5 mg/kg/day
- LOAEL [1, 19]: > 100 mg/kg/day
- NOAEL [1, 19]: ≥ 100 mg/kg/day
- LEL [2]: 1 mg/kg/day
- LOAEL [2]: > 1000 mg/kg/day
- NEL [2]: < 1 mg/kg/day
- NOAEL [2]: ≥ 1000 mg/kg/day

SMILES: C[C@H]1[C@H](c2ccc(Cl)cc2)SC(=O)N1C(=O)NC1CCCCC1 [Hexythiazox]
- LEL [3]: 163 mg/kg/day
- LOAEL [3]: 163 mg/kg/day
- NEL [3]: 23 mg/kg/day
- NOAEL [3]: 23 mg/kg/day
- LEL [4]: 13.1 mg/kg/day
- LOAEL [4]: 13.1 mg/kg/day
- NEL [4]: 2.87 mg/kg/day
- NOAEL [4]: 2.87 mg/kg/day
- LEL [5]: 267 mg/kg/day
- LOAEL [5]: 267 mg/kg/day
- NEL [5]: 41.6 mg/kg/day
- NOAEL [5]: 41.6 mg/kg/day
- LEL [6, 20]: 720 mg/kg/day
- LOAEL [6, 20]: > 2160 mg/kg/day
- NEL [6, 20]: 240 mg/kg/day
- NOAEL [6, 20]: ≥ 2160 mg/kg/day
- LOAEL ([6]; group: maternal, systemic / in life observation / body weight / body weight gain + systemic / in life observation / food consumption / food consumption): 720 mg/kg/day
- LEL [6, 21]: 720 mg/kg/day
- NEL [6, 21]: 240 mg/kg/day
- NOAEL [6, 21]: 240 mg/kg/day
- LEL [7, 22]: 50 mg/kg/day
- LOAEL [7, 22]: > 350 mg/kg/day
- NEL [7, 22]: 7 mg/kg/day
- NOAEL [7, 22]: ≥ 350 mg/kg/day
- LEL [7, 23]: 50 mg/kg/day
- LOAEL [7, 23]: 50 mg/kg/day
- NEL [7, 23]: 7 mg/kg/day
- NOAEL [7, 23]: 7 mg/kg/day

SMILES: C[n+]1ccc(-c2cc[n+](C)cc2)cc1.[Cl-].[Cl-] [Paraquat dichloride]
- LEL [8, 24]: 15 mg/kg/day
- LOAEL [8, 24]: 15 mg/kg/day
- NEL [8, 24]: 5 mg/kg/day
- NOAEL [8, 24]: 5 mg/kg/day
- NEL [8, 25]: 5 mg/kg/day
- NOAEL [8, 25]: 5 mg/kg/day
- LEL [8, 26]: 15 mg/kg/day
- LOAEL [8, 26]: 15 mg/kg/day
- NOAEL ([9]; systemic / hematology / leukocyte (wbc) count differential / leukocyte (wbc)): 3.82 mg/kg/day
- LOAEL ([9]; systemic / hematology / leukocyte (wbc) count differential / leukocyte (wbc) + systemic / hematology / erythrocyte (rbc) count differential…): 13 mg/kg/day
- LEL ([9]; systemic / pathology microscopic / mammary gland / [other]): 3.82 mg/kg/day
- NEL ([9]; systemic / pathology microscopic / mammary gland / [other] + systemic / clinical chemistry / glucose / glucose + systemic / clinical …): 1.32 mg/kg/day
- LEL [10, 27]: 0.45 mg/kg/day
- NEL [10, 27]: < 0.45 mg/kg/day
- LOAEL ([10]; systemic / pathology microscopic / lung / inflammation): 0.93 mg/kg/day
- NOAEL ([10]; systemic / pathology microscopic / lung / inflammation + systemic / pathology microscopic / ear / squamous cell papilloma + systemic / in …): 0.45 mg/kg/day
- LEL [11]: 1.5 mg/kg/day
- LOAEL [11]: 1.5 mg/kg/day
- NEL [11]: 0.5 mg/kg/day
- NOAEL [11]: 0.5 mg/kg/day
- LOAEL [12, 28]: 5.62 mg/kg/day
- NOAEL [12, 28]: 1.88 mg/kg/day
- LEL [12, 29]: 1.88 mg/kg/day
- NEL [12, 29]: < 1.88 mg/kg/day
- LOAEL [13, 20]: 5 mg/kg/day
- LEL [13, 30]: 5 mg/kg/day
- NEL [13, 30]: 1 mg/kg/day
- NOAEL [13, 30]: 1 mg/kg/day
- LEL [13, 31]: 5 mg/kg/day
- LOAEL [13, 31]: 5 mg/kg/day
- NEL [13, 31]: 1 mg/kg/day
- NOAEL [13, 31]: 1 mg/kg/day

SMILES: CC(C)=CC1C(C(=O)OCc2cccc(Oc3ccccc3)c2)C1(C)C (centres undefined) [Phenothrin]
- LEL [14, 32]: 45 mg/kg/day
- NEL [14, 32]: < 45 mg/kg/day
- LOAEL [14, 33]: 150 mg/kg/day
- NOAEL [14, 33]: 45 mg/kg/day
- LOAEL [15, 34]: 565 mg/kg/day
- NEL [15, 34]: 57 mg/kg/day
- NOAEL [15, 34]: 190 mg/kg/day
- LEL ([15]; systemic / pathology microscopic / liver / necrosis): 190 mg/kg/day
- LOAEL ([16]; systemic / clinical chemistry / cholesterol / cholesterol + systemic / clinical chemistry / lactic acid dehydrogenase (ldh) / lactic acid …): 216 mg/kg/day
- LEL [16, 35]: 21 mg/kg/day
- NEL [16, 35]: < 21 mg/kg/day
- NOAEL ([16]; systemic / organ weight / spleen / absolute + systemic / organ weight / spleen / relative to body weight + systemic / clinical chemistry / …): 70 mg/kg/day
- NOAEL ([17]; systemic / in life observation / body weight / body weight gain): 50 mg/kg/day
- LEL [17, 36]: 150 mg/kg/day
- LOAEL [17, 36]: 150 mg/kg/day
- NEL ([17]; systemic / organ weight / liver / relative to body weight): 50 mg/kg/day
